{
  "source": "BindingDB's records for patent US10849881",
  "about": "(Hoffmann-La Roche, 2020)",
  "biological_target": "Autotaxin (Homo sapiens, UniProt Q13822)",
  "test": "Enzyme Inhibition Assay",
  "procedure": "ATX inhibition was measured by a fluorescence quenching assay using a specifically labeled substrate analogue (MR121 substrate). To obtain this MR121 substrate, BOC and TBS protected 6-amino-hexanoic acid (R)-3-({2-[3-(2-{2-[2-(2-amino-ethoxy)-ethoxy]-ethoxy}-ethoxy)-propionylamino]-ethoxy}-hydroxy-phosphoryloxy)-2-hydroxy-propyl ester (Ferguson et al., Org Lett 2006, 8 (10), 2023) was labeled with MR121 fluorophore (CAS 185308-24-1, 1-(3-carboxypropyl)-11-ethyl-1,2,3,4,8,9,10,11-octahydro-dipyrido[3,2-b:2′,3′-i]phenoxazin-13-ium) on the free amine of the ethanolamine side and then, after deprotection, subsequently with tryptophan on the side of the aminohexanoic acid.Assay working solutions were made as follows:Assay buffer (50 mM Tris-HCl, 140 mM NaCl, 5 mM KCl, 1 mM CaCl2, 1 mM MgCl2, 0.01% Triton-X-100, pH 8.0;ATX solution: ATX (human His-tagged) stock solution (1.08 mg/mL in 20 mM bicine, pH 8.5, 0.15 M NaCl, 10% glycerol, 0.3% CHAPS, 0.02% NaN3), diluted to 1.4-2.5× final concentration in assay buffer;MR121 substrate solution: MR121 substrate stock solution (800 μM MR121 substrate in DMSO), diluted to 2-5× final concentration in assay buffer.",
  "data": [
    {"smiles": "O=C(c1ccc2cc(Br)ccc2c1)N1C[C@@H]2[C@H](C1)[C@H]1CN(C(=O)c3ccc4[nH]nnc4c3)C[C@@H]21", "note": "[US10849881, Example 1.004]", "values": [
      {"measurement": "IC50", "value": 0.017, "unit": "µM"}
    ]}
  ]
}
